Experimental data published in patent EP0806480A2, “Frenolicin gene cluster” (F. HOFFMANN-LA ROCHE AG, priority 1996, dated 1997).

These compounds were tested on Streptomyces and other bacteria (assay: Toxicity of frenolicins to bacteria (comparative statement, no method described)). Details: relative ranking among the frenolicins; qualitative only.
Format: cell-based

Compound	toxic to Streptomyces and other bacteria
frenolicin B [reference compound]	most toxic
CCC[C@H]1O[C@H](CC(=O)O)CC2=C1C(=O)c1c(O)cccc1C2=O [deoxyfrenolicin]	less toxic
frenolicin epoxide	even less so
